Test [1] has as its system A. ceylanicum L3 larvae. The test can be described thus: A. ceylanicum L3 larvae J. Keiser. In kind it is cell-based, Ancylostoma ceylanicum. Conditions: 200µM.
The test system of test [2] is T. muris L1 larvae. The test can be described thus: T. muris L1 larvae J. Keiser. In kind it is cell-based, Trichuris muris. To be noted: 100µM.
In test [3] the test system is T. b. brucei Squib 427. The test can be described thus: T. b. brucei growth Maes. The format is cell-based, Trypanosoma brucei brucei. To be noted: non-toxic, positive in all T. brucei screens.
Test [4] relates to P. falciparum FCR3. The test can be described thus: FCR3 SYBR Green I assay Horii. The format is cell-based. Conditions: Plasmodium falciparum, FCR3, 72 h; read-out: P. falciparum FCR3 asexual blood stage IC50 Horii. How it is done:
Column T: Horii group (data presented first in this paper). IC50 against asexual blood stage P. falciparum FCR3. Methods: For measurement of anti-Plasmodium activities, P. falciparum FCR3 strain was cultured in the RPMI 1640 medium supplemented with 10% human type A serum from in-house volunteers at 37°C, 5% O2 and 5% CO2 (0.5% parasitemia and 2% hematocrit) for 72 h in the presence of the compounds (DMSO final concentration, 0.25%). The growth inhibition of P. falciparum was determined using a SYBR Green I assay. Lysis buffer (20 mM Tris (pH 7.5), 5 mM EDTA, 0.008% (w/v) saponin and 0.08% (v/v) Triton X-100) containing SYBR Green I was added to each well and incubated at room temperature and dark condition for 1-5 hours. After the incubation, amounts of parasite DNA were measured as fluorescence at 485 nm of excitation and 530 nm of emission. An unpublished antimalarial compound was used as positive control in the assay.

For test [5], the system named is P. falciparum Dd2. The test can be described thus: Malaria Sybr Green I Fluorescence assay Dd2 Horrocks. In kind it is cell-based. To be noted: Plasmodium falciparum, DD2, 48 h; read-out: P. falciparum Dd2 asexual blood stage EC50 Horrocks. The method in brief: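 Dd2 asexual parasites started at 2% trophozoite-stage parasitaemia and 2% hematocrit; growth read by SYBR Green I fluorescence after 48 h. IC50 values taken from log dose-response curves.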

Test [6] concerns P. falciparum 3D7 or K1. The test can be described thus: Asexual Blood Stage Imaging Assay (DAPI) V. Avery. In kind it is cell-based. Conditions: Plasmodium falciparum.
Test [7] relates to P. falciparum NF54Pfs16 gametocytes stage IV-V. To be noted: ref [69]; read-out: late stage gametocyte luciferase, no inhibition up to; cited from earlier work.
Test [8] concerns P. falciparum 3D7. The test can be described thus: [3H]-hypoxanthine growth inhibition, modified HCO3- or O2. In kind it is cell-based. To be noted: for IC50: Plasmodium falciparum.
The subject of test [9] is P. falciparum NF54Pfs16 gametocytes stage I-III. Conditions: ref [61]; read-out: gametocyte early stage (I-III) luciferase EC50; cited from earlier work.
The test system of test [10] is P. falciparum HB3. The test can be described thus: Stage-specificity / mitochondrial integrity image assay Ayong. Conditions: 10µM. The format is cell-based.
Test [11] has as its system Naegleria fowleri trophozoites. The test can be described thus: Naegleria fowleri CellTiter-Glo. In kind it is cell-based. Conditions: Naegleria fowleri. The method in brief: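 Growth inhibition of Naegleria fowleri trophozoites in vitro, read as cellular ATP by CellTiter-Glo 2.0 luminescence in lysed cells, output in relative light units.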
The test system of test [12] is Acinetobacter baumannii ATCC 19606. The test can be described thus: A. baumannii agar spot / MIC Baker. To be noted: ATCC19606, read-out: Minimum Inhibitory Concentrations (MIC) A. baumanii.
Test [13] has as its system Staphylococcus aureus. The test can be described thus: S. aureus agar spot / MIC Baker. To be noted: read-out: Minimum Inhibitory Concentrations (MIC) S. aureus.
The subject of test [14] is P. falciparum. The test can be described thus: EC50 listed in S2 Table Metabolomics (used to set the concentration tested). The format is cell-based. Conditions: Plasmodium falciparum; EC50 used for Factor_XEC50 in metabolomics; read-out: EC50_nM.
Test [15] concerns P. falciparum 3D7 trophozoites. The test can be described thus: Metabolomic fingerprint profiling LC-MS. The format is cell-based, Plasmodium falciparum. Details: UDP-D-glucose / ADP-D-glucose: unit not given here.
The mark [16] stands for this setting: metabolite level change after treatment.

Values after ≈ are worked out from the molar mass of the structure shown. Read-outs that look alike come from different tables or passages of the source.

Regarding `c1ccc([C@H]2CN3CCSC3=N2)cc1` [Levamisole, reference compound], the “A. ceylanicum positive control effect” value in test [1] is “caused death of all worms”. Besides, the “T. muris positive control effect” value in test [2] is reported as “caused death of all worms”.

`CN(C)CCCNCc1ccc(-c2ccc(F)c(Cl)c2)o1` [MMV020505]: in test [3], the “Selectivity Index T. brucei screens” value is given as greater than 10.

Turning to `CCN(CC)CCCC(C)Nc1ccnc2cc(Cl)ccc12` (centres unmarked) [Chloroquine, reference compound], the IC50 in test [4] was 125 nM; in [7] it was greater than 10000 nM; in test [8] (3D7, read-out: P. falciparum 3D7 IC50 1% O2, 1% O2 hypoxia), 7 nM; in [8] (3D7, read-out: P. falciparum 3D7 IC50 5% O2), 11 nM; in [8] (3D7, read-out: P. falciparum 3D7 IC50 HCO3- (2g/L), standard media) it was 16 nM; in [8] (3D7, HCO3- reduced media, read-out: P. falciparum 3D7 IC50 HCO3- reduced), 36 nM. Besides, the EC50 in test [5] was 209 nM; in [6] (read-out: P. falciparum 3D7 asexual blood stage EC50 (Image) V. Avery), 3 nM; in test [6] (read-out: P. falciparum K1 asexual blood stage EC50 (Image) V. Avery), 199 nM; in test [9], 77 nM. For the same molecule, the “fold change (IC50normal/ IC50hypoxia)” value in [8] was 1.6. For the same molecule, in test [8], the “fold change (IC50reduced/IC50normal)” value worked out at 2.3. In test [10], the “Effects on asexual life cycle progression (treatment at ER, LR, T, S; merozoites; mitochondrial integrity)” value is “LR-X-S-o-o-o”.

For `O=C(Nc1cccc(C(F)(F)F)c1)c1cc(Cl)ccc1O` [MMV665807], the EC50 in test [11] was 1090 nM. Further, the MIC in test [12] and in [13] was 1.25 to 5 µM (≈ 0.395 to 1.58 µg/mL) each time.

With ivermectin [reference compound], the “A. ceylanicum positive control effect” value in [1] is reported as “caused death of all worms”. In addition, the “T. muris positive control effect” value in test [2] was “caused death of all worms”.

In the case of `O=C(Nc1ccc(F)c(Cl)c1)Nc1ccc(Cl)c(Cl)c1` [MMV665953], the MIC in test [12] and in test [13] was 1.25 to 5 µM (≈ 0.417 to 1.67 µg/mL) in each case.

On to `CCN1CCN(Cc2ccc(NC(=O)c3cc4ccc5cccnc5c4[nH]3)cc2)CC1` [MMV020548], for which the EC50 in test [14] is 361 nM. The Acetyllysine in [15] (S2 Table Metabolomics, metabolite Acetyllysine) is -1.074. In addition, in test [15] (S2 Table Metabolomics, metabolite N-acetyl-L-ornithine), the N-acetyl-L-ornithine is reported as -0.7002. In [15] (S2 Table Metabolomics, metabolite N-carbamoyl-L-aspartate), the N-carbamoyl-L-aspartate was 0.01627. In addition, in [15] (S2 Table Metabolomics, metabolite NADPH), the NADPH is listed as -0.7588. The dAMP in [15] (S2 Table Metabolomics, metabolite dAMP) amounted to 0.7039. Moreover, the dCMP in test [15] (S2 Table Metabolomics, metabolite dCMP) amounted to 0.2246. Moreover, in test [15] (S2 Table Metabolomics, metabolite dTDP), the dTDP is 0.1022. In addition, in [15] (S2 Table Metabolomics, metabolite dTMP), the dTMP came to 0.01221. The dTTP in test [15] (S2 Table Metabolomics, metabolite dTTP) was -0.4268. For the same molecule, the dihydroorotate in test [15] (S2 Table Metabolomics, metabolite dihydroorotate) amounted to 0.1148. Besides, the orotate in test [15] (S2 Table Metabolomics, metabolite orotate) worked out at 0.2392. In test [15] (S2 Table Metabolomics, peptide DLH), the DLH is given as -1.531. Further, the DLS/SDL/SID in test [15] (S2 Table Metabolomics, peptide DLS/SDL/SID) is recorded as -1.1. The same molecule yielded a PD in test [15] (S2 Table Metabolomics, peptide PD) of -1.147. The same molecule displayed a PEE in test [15] (S2 Table Metabolomics, peptide PEE) of -0.7652. In test [15] (S2 Table Metabolomics, peptide PVNF), the PVNF is -1.327. The 3-phosphoglycerate in test [15] (metabolite 3-phosphoglycerate, S2 Table Metabolomics) was -0.1406. The ADP-D-glucose in test [15] (metabolite ADP-D-glucose, S2 Table Metabolomics) was determined as 0.03533. Also, the ATP in [15] (metabolite ATP, S2 Table Metabolomics) is reported as -0.3247. The CDP in [15] (metabolite CDP, S2 Table Metabolomics, change in metabolite level after compound treatment) is reported as -0.06734. Further, in [15] (metabolite D-sedoheptulose-1/7-phosphate, S2 Table Metabolomics, change in metabolite level after compound treatment), the D-sedoheptulose-1/7-phosphate is -0.2201. The FAD in test [15] (metabolite FAD, S2 Table Metabolomics) is recorded as -0.1695. In test [15] (metabolite GMP, S2 Table Metabolomics, change in metabolite level after compound treatment), the GMP came out at 0.03987. Besides, the “NAD+” value in test [15] (metabolite NAD+, S2 Table Metabolomics) was -0.004207. In addition, the “NADP+” value in [15] (metabolite NADP+, S2 Table Metabolomics) was -0.07599. The “Octoluse Bisphosphate” value in test [15] (metabolite Octoluse Bisphosphate, S2 Table Metabolomics, change in metabolite level after compound treatment) is given as -0.5083. Moreover, in [15] (metabolite Pyroglutamic acid, S2 Table Metabolomics), the Pyroglutamic acid is 0.8773. Also, the UDP-D-glucose in [15] (metabolite UDP-D-glucose, S2 Table Metabolomics) is reported as -0.04378. Moreover, the UDP-D-glucuronate in test [15] (metabolite UDP-D-glucuronate, S2 Table Metabolomics) is listed as -0.2395. Besides, the UDP-N-acetyl-glucosamine in [15] (metabolite UDP-N-acetyl-glucosamine, S2 Table Metabolomics) is recorded as -0.0477. In [15] (metabolite UDP, S2 Table Metabolomics, change in metabolite level after compound treatment), the UDP is given as -0.1277. In addition, the UMP in test [15] (metabolite UMP, S2 Table Metabolomics, change in metabolite level after compound treatment) is -0.04731. Besides, the UTP in [15] (metabolite UTP, S2 Table Metabolomics, change in metabolite level after compound treatment) is given as -0.476. Besides, the a-ketoglutarate in test [15] (metabolite a-ketoglutarate, S2 Table Metabolomics) is given as 0.2925. In test [15] (metabolite citrate/isocitrate, S2 Table Metabolomics, change in metabolite level after compound treatment), the citrate/isocitrate came out at 0.7028. Further, the cytidine in test [15] (metabolite cytidine, S2 Table Metabolomics) is 0.2393. Also, the dATP in test [15] (metabolite dATP, S2 Table Metabolomics) is reported as -0.2064. Also, the dGMP/AMP in test [15] (metabolite dGMP/AMP, S2 Table Metabolomics, change in metabolite level after compound treatment) was determined as 0.2962. For the same molecule, the fumarate in test [15] (metabolite fumarate, S2 Table Metabolomics, change in metabolite level after compound treatment) is -0.1605. The glucose-1/6-phosphate in test [15] (metabolite glucose-1/6-phosphate, S2 Table Metabolomics, change in metabolite level after compound treatment) is given as -0.1021. The glycerate in test [15] (metabolite glycerate, S2 Table Metabolomics, change in metabolite level after compound treatment) is 0.2926. The guanine in test [15] (metabolite guanine, S2 Table Metabolomics, change in metabolite level after compound treatment) came out at 0.4901. In addition, the guanosine in [15] (metabolite guanosine, S2 Table Metabolomics, change in metabolite level after compound treatment) was found to be 0.1417. Besides, the hypoxanthine in test [15] (metabolite hypoxanthine, S2 Table Metabolomics) worked out at 0.9061. In addition, the indole in [15] (metabolite indole, S2 Table Metabolomics) worked out at 0.3876. In test [15] (metabolite inosine, S2 Table Metabolomics, change in metabolite level after compound treatment), the inosine is recorded as 0.524. For the same molecule, in test [15] (setting [16]), the 2_3-Diphosphoglyceric acid is given as -0.4996, the 4-phosphopantothenate is reported as 0.07924, the 6-phospho-D-gluconate was -0.3745 and the FMN was -0.06134. In addition, in test [15] (setting [16]), the IMP amounted to 0.03526, the Pyrophosphate is -0.5624, the Sedoheptoluse bisphosphate was -0.2788 and the cyclic-AMP is given as -0.1988. Also, in [15] (setting [16]), the glutathione disulfide is -0.4809, the lactate amounted to 0.3196 and the myo-inositol is given as -0.02428. Besides, the nicotinate in [15] (metabolite nicotinate, S2 Table Metabolomics) is on record as 0.6741. Also, the ornithine in [15] (metabolite ornithine, S2 Table Metabolomics) is listed as -0.3153. In test [15] (metabolite phosphoenolpyruvate, S2 Table Metabolomics), the phosphoenolpyruvate is listed as 0.09829. Besides, the pyruvate in [15] (metabolite pyruvate, S2 Table Metabolomics, change in metabolite level after compound treatment) turned out to be 0.858. For the same molecule, the ribose-phosphate in [15] (metabolite ribose-phosphate, S2 Table Metabolomics) was -0.1246. Moreover, in [15] (metabolite sarcosine/alanine, S2 Table Metabolomics, change in metabolite level after compound treatment), the sarcosine/alanine is recorded as 0.05828. Moreover, the sn-glycerol-3-phosphate in test [15] (metabolite sn-glycerol-3-phosphate, S2 Table Metabolomics) is reported as -0.07501. In addition, the succinate/methylmalonic acid in test [15] (metabolite succinate/methylmalonic acid, S2 Table Metabolomics, change in metabolite level after compound treatment) is reported as -0.07231. Further, the uridine in test [15] (metabolite uridine, S2 Table Metabolomics, change in metabolite level after compound treatment) is on record as 0.7812. Also, the xanthosine in test [15] (metabolite xanthosine, S2 Table Metabolomics, change in metabolite level after compound treatment) turned out to be 0.03293. Moreover, the “Selectivity Index T. brucei screens” value in [3] is listed as greater than 10.

The record behind these values is PMC4965013, “Open Source Drug Discovery with the Malaria Box Compound Collection for Neglected Diseases and Beyond” (PLoS Pathogens, 2016).
